Assay results published in patent US8349316B2, “Lactobacillus fermentum SG-A95 for improving oral bacterial groups and health care compositions thereof” (priority 2010, dated 2013).

How the values were obtained:
[1] = test system: Actinomyces viscosus (ATCC 15987); assay: Disc agar diffusion test; format: cell-based; settings: 6 mm paper disc, 37, anaerobic, 24 hours, mean±S.D. (n=3); zone not over 6 mm = negative
Experimental: (§1) Lactobacillus fermentum SG-[…] was cultured in liquid medium. MRS medium was used in this embodiment. […]. The fermentation broth was concentrated into 30-fold of original concentration and dialyzed with SPECTRA/POR® Dialysis Membrane (MWCO:3500, Spectrum Laboratories Inc, CA) for 48 hours. Lactobacillus fermentum SG-[…] and concentrate fermentation product were diluted into various concentrations according to experimental requirements. Disc agar diffusion test, broth dilution method, and co-cultivation test of Lactobacillus fermentum SG-[…] with Streptococcus mutans (ATCC 25175), Streptococcus sanguis (ATCC 49295), Porphyromonas gingivalis (ATCC 33277), and Actinomyces viscosus (ATCC 15987) were separately performed to understand the inhibition of pathogen growth. Above four pathogens strains were purchased from Bioresource Collection and Research Center of Food Industry Research and Development Institute in Taiwan or ATCC. […] Dip bacteria culture with sterile cotton swab for 3 seconds, and each bacteria was smeared on agar plates in three directions to evenly distribute the incoculum. After dialyzing 30-fold fermentation product of Lactobacillus fermentum SG-[…], adjust concentrate to 4-fold concentrate (LFP4), 2-fold concentrate (LFP2) and 1-fold (LFP1) (unconcentrated fermentation broth). […] The diameter of sterile paper disc was 6 mm. The positive bacterial inhibition effect was determined by over 6 mm bacterial inhibition zone. Otherwise, it was defined as negative bacterial inhibition effect. The cultural condition was under the temperature of 37 for 24 hours. The paper disc was used in control group containing tetracycline. The inhibition zone value was shown as mean±S.D. (n=3).

[2] = test system: Porphyromonas gingivalis (ATCC 33277); assay: Disc agar diffusion test; format: cell-based; settings: 6 mm paper disc, 37, anaerobic, 24 hours, mean±S.D. (n=3); zone not over 6 mm = negative
Experimental: as §1

[3] = test system: Streptococcus mutans (ATCC 25175); assay: Disc agar diffusion test; format: cell-based; settings: 6 mm paper disc, 37, anaerobic, 24 hours, mean±S.D. (n=3); zone not over 6 mm = negative
Experimental: as §1

[4] = test system: Streptococcus sanguis (ATCC 49295); assay: Disc agar diffusion test; format: cell-based; settings: 6 mm paper disc, 37, anaerobic, 24 hours, mean±S.D. (n=3); zone not over 6 mm = negative
Experimental: as §1

[5] = test system: artificially induced periodontal disease (ligature wire, Streptococcus mutans inoculated in gum tissue); assay: Evaluation of preventive effect for animal periodontal disease; format: in vivo, Balb/c mice; settings: prevention group; for mice periodontal pocket depth: mean±S.D., listed as pTC
Experimental: (§2) This trial included treatment groups and control groups. The-treatment group of Lactobacillus fermentum SG-A95 were divided into 6 groups as follows: 3 groups of dialyzed Lactobacillus fermentum SG-A95 fermentation product concentrate such as 4-fold, 2-fold, and 1-fold (unconcentrated fermentation broth) and 3 groups of Lactobacillus fermentum SG-A95 in various numbers of bacteria such as 1×10^9, 2×10^9 and 5×10^9. Two control groups were treated with 0.267 mg/mL of tetracycline and distilled water.
Twelve of 8-week-old female Balb/c mice were selected for each group (Table 2). The mice were administered with various concentrations of Lactobacillus fermentum SG-A95 fermentation product or live Lactobacillus fermentum SG-A95, and 1 mL of 0.267 mg/mL tetracyccline or distilled water separately. […] Their pathological symptoms were observed and recorded until sacrificing all animals. Until the control group (feeding with distilled water, mock-treated group) showing gum swelling and dental plaque appearance diagnosed by chief dentists, the ligature wire was removed and inoculation of dental pathogen was stopped. At day 4, 8, 12, and 16 after wire removal, mice periodontal pocket depth was examined, 3 mice from each group were killed for blood sampling and samples were collected for histological analysis.
(§3) Control group was used as a standard to examine subjects from each group by Mann-Whitney test.
(§4) Experimental data was shown as mean±S.D. The statistical variation of treatment groups and control groups of mice periodontal pocket was performed by One-Way ANOVA and Dunnett multiple post hoc comparison in longitudinal study, and by One-Way ANOVA and LSD multiple post hoc comparison in cross-sectional study. Besides, Mann-Whitney test was used to examine the number of periodontal pocket improving individuals. The statistical significance level of p value was 0.05.

[6] = test system: artificially induced periodontal disease (ligature wire, Streptococcus mutans inoculated in gum tissue); assay: Evaluation of therapeutic effect for animal periodontal disease; format: in vivo, Balb/c mice; settings: treatment group; for mice periodontal pocket depth: mean±S.D.
Experimental: as §2
Twelve of 8-week-old female Balb/c mice were selected for each group (Table 3). […] After diagnosis of diseased tissue by chief dentists, they were administered different concentrations of Lactobacillus fermentum SG-A95 fermentation product, live Lactobacillus fermentum SG-A95, 1 mL of 0.267 mg/mL tetracycline or distill water every day. The symptoms were recorded. The wire was removed at the beginning of the treatment and stop periodontal pathogen inoculation. At day 4, 8, 12, and 16 after wire removal, mice periodontal pocket depth was examined. 3 mice from each group were killed for blood sampling and histological analysis.
as §3, §4

Which “Bacterial inhibition zone, Actinomyces viscosus” value [1] does the source give for `CN(C)[C@@H]1C(O)=C(C(N)=O)C(=O)[C@@]2(O)C(O)=C3C(=O)c4c(O)cccc4[C@@](C)(O)[C@H]3C[C@@H]12` [tetracycline] here?
The value was 48.2 ± 2.4 mm.

What about the “Bacterial inhibition zone, Porphyromonas gingivalis” value [2] of the same molecule?
The value was 33.4 ± 2.2 mm.

And the “Bacterial inhibition zone, Streptococcus mutans” value [3]?
Its value is 29.7 ± 2.0 mm.

And the “Bacterial inhibition zone, Streptococcus sanguis” value [4]?
Its value is 25.9 ± 1.2 mm.

What about the “periodontal pocket improvement percentage (percentage of improving individual)” value ([5]; Day 4, against pMT by Mann-Whitney test) of the same molecule?
The value was 62%.

And the “mice periodontal pocket depth” value ([5]; Day 4 after wire removal)?
Its value is 0.84 ± 0.50 mm.

What about the “periodontal pocket improvement percentage (percentage of improving individual)” value ([5]; Day 8, against pMT by Mann-Whitney test) of the same molecule?
The value was 50%.

And the “mice periodontal pocket depth” value ([5]; Day 8 after wire removal)?
Its value is 0.70 ± 0.34 mm.

And the “periodontal pocket improvement percentage (percentage of improving individual)” value ([5]; Day 12, against pMT by Mann-Whitney test)?
Its value is 71%.

And the “mice periodontal pocket depth” value ([5]; Day 12 after wire removal)?
The value was 0.56 ± 0.26 mm.

What about the “periodontal pocket improvement percentage (percentage of improving individual)” value ([5]; Day 16, against pMT by Mann-Whitney test) of the same molecule?
The value was 100%.

And the “mice periodontal pocket depth” value ([5]; Day 16 after wire removal)?
Its value is 0.49 ± 0.25 mm.

And the “periodontal pocket improvement percentage (percentage of improving individual)” value ([6]; Day 4, against tMT by Mann-Whitney test)?
The value was 30%.

What about the “mice periodontal pocket depth” value ([6]; Day 4 after wire removal, listed as pTC) of the same molecule?
The value was 1.05 ± 0.64 mm.

What about the “mice periodontal pocket depth” value ([6]; Day 4 after wire removal, listed as tTC) of the same molecule?
Its value is 1.05 ± 0.64 mm.

What about the “periodontal pocket improvement percentage (percentage of improving individual)” value ([6]; Day 8, against tMT by Mann-Whitney test) of the same molecule?
Its value is 20%.

What about the “mice periodontal pocket depth” value ([6]; Day 8 after wire removal, listed as pTC) of the same molecule?
The value was 0.89 ± 0.44 mm.

And the “mice periodontal pocket depth” value ([6]; Day 8 after wire removal, listed as tTC)?
The value was 0.89 ± 0.44 mm.

And the “periodontal pocket improvement percentage (percentage of improving individual)” value ([6]; Day 12, against tMT by Mann-Whitney test)?
The value was 47%.

What about the “mice periodontal pocket depth” value ([6]; Day 12 after wire removal) of the same molecule?
The value was 0.63 ± 0.37 mm.

And the “periodontal pocket improvement percentage (percentage of improving individual)” value ([6]; Day 16, against tMT by Mann-Whitney test)?
Its value is 33%.

And the “mice periodontal pocket depth” value ([6]; Day 16 after wire removal, listed as pTC)?
The value was 0.61 ± 0.34 mm.

What about the “mice periodontal pocket depth” value ([6]; Day 16 after wire removal, listed as tTC) of the same molecule?
The value was 0.48 ± 0.33 mm.
